In PubChem BioAssay (NCI):
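Assay format: 96-well plates, 48-hour exposure. TGI: total growth inhibition.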

Assays:
Experiment in all cases: growth of human tumour cells (NCI), 48 h
786-0 renal = system: 786-0 renal
A498 renal = system: A498 renal
A549 NSCLC = system: A549 NSCLC
ACHN renal = system: ACHN renal
CAKI-1 renal = system: CAKI-1 renal
CCRF-CEM leukemia = system: CCRF-CEM leukemia
COLO 205 colon = system: COLO 205 colon
DLD-1 colon = system: DLD-1 colon
DMS 114 small cell lung = system: DMS 114 small cell lung
DMS 273 small cell lung = system: DMS 273 small cell lung
EKVX NSCLC = system: EKVX NSCLC
HCC-2998 colon = system: HCC-2998 colon
HCT-116 colon = system: HCT-116 colon
HCT-15 colon = system: HCT-15 colon
HOP-18 NSCLC = system: HOP-18 NSCLC
HOP-62 NSCLC = system: HOP-62 NSCLC
HOP-92 NSCLC = system: HOP-92 NSCLC
HT29 colon = system: HT29 colon
IGROV1 ovarian = system: IGROV1 ovarian
K-562 leukemia = system: K-562 leukemia
KM12 colon = system: KM12 colon
KM20L2 colon = system: KM20L2 colon
LOX IMVI melanoma = system: LOX IMVI melanoma
LXFL 529 NSCLC = system: LXFL 529 NSCLC
M14 melanoma = system: M14 melanoma
M19-MEL melanoma = system: M19-MEL melanoma
MALME-3M melanoma = system: MALME-3M melanoma
MOLT-4 leukemia = system: MOLT-4 leukemia
NCI-H226 lung = system: NCI-H226 lung
NCI-H23 lung = system: NCI-H23 lung
NCI-H460 lung = system: NCI-H460 lung
NCI-H522 lung = system: NCI-H522 lung
OVCAR-3 ovarian = system: OVCAR-3 ovarian
OVCAR-4 ovarian = system: OVCAR-4 ovarian
OVCAR-5 ovarian = system: OVCAR-5 ovarian
OVCAR-8 ovarian = system: OVCAR-8 ovarian
RPMI-8226 leukemia = system: RPMI-8226 leukemia
RXF 393 renal = system: RXF 393 renal
RXF-631 renal = system: RXF-631 renal
SF-268 CNS = system: SF-268 CNS
SF-295 CNS = system: SF-295 CNS
SF-539 CNS = system: SF-539 CNS
SK-MEL-2 melanoma = system: SK-MEL-2 melanoma
SK-MEL-28 melanoma = system: SK-MEL-28 melanoma
SK-MEL-5 melanoma = system: SK-MEL-5 melanoma
SN12C renal = system: SN12C renal
SNB-19 CNS = system: SNB-19 CNS
SNB-75 CNS = system: SNB-75 CNS
SNB-78 CNS = system: SNB-78 CNS
SR leukemia = system: SR leukemia
SW-620 colon = system: SW-620 colon
TK-10 renal = system: TK-10 renal
U251 CNS = system: U251 CNS
UACC-257 melanoma = system: UACC-257 melanoma
UACC-62 melanoma = system: UACC-62 melanoma
UO-31 renal = system: UO-31 renal
XF 498 CNS = system: XF 498 CNS
HL-60(TB) leukemia = system: HL-60(TB) leukemia
SK-OV-3 ovarian = system: SK-OV-3 ovarian

Q: With `[N-]=[N+]=Nc1ccc(S(=O)(=O)Oc2cc(OS(=O)(=O)c3ccc(N=[N+]=[N-])cc3)cc(OS(=O)(=O)c3ccc(N=[N+]=[N-])cc3)c2)cc1` as the compound, how does the TGI (786-0 renal) read?
A: > 100 µM

Q: What about the TGI (A498 renal) of the same compound?
A: > 100 µM

Q: And the TGI (A549 NSCLC)?
A: > 100 µM

Q: What about the TGI (ACHN renal) of the same compound?
A: > 10 µM

Q: What about the TGI (CAKI-1 renal) of the same compound?
A: > 10 µM

Q: What about the TGI (CCRF-CEM leukemia) of the same compound?
A: > 100 µM

Q: What about the TGI (COLO 205 colon) of the same compound?
A: > 10 µM

Q: What about the TGI (DLD-1 colon) of the same compound?
A: > 100 µM

Q: And the TGI (DMS 114 small cell lung)?
A: > 100 µM

Q: And the TGI (DMS 273 small cell lung)?
A: > 100 µM

Q: And the TGI (EKVX NSCLC)?
A: > 100 µM

Q: What about the TGI (HCC-2998 colon) of the same compound?
A: > 100 µM

Q: And the TGI (HCT-116 colon)?
A: > 100 µM

Q: And the TGI (HCT-15 colon)?
A: > 100 µM

Q: What about the TGI (HOP-18 NSCLC) of the same compound?
A: > 100 µM

Q: And the TGI (HOP-62 NSCLC)?
A: > 100 µM

Q: What about the TGI (HOP-92 NSCLC) of the same compound?
A: > 100 µM

Q: And the TGI (HT29 colon)?
A: > 100 µM

Q: What about the TGI (IGROV1 ovarian) of the same compound?
A: > 100 µM

Q: What about the TGI (K-562 leukemia) of the same compound?
A: > 100 µM

Q: And the TGI (KM12 colon)?
A: > 100 µM

Q: And the TGI (KM20L2 colon)?
A: > 100 µM

Q: And the TGI (LOX IMVI melanoma)?
A: > 100 µM

Q: And the TGI (LXFL 529 NSCLC)?
A: > 100 µM

Q: What about the TGI (M14 melanoma) of the same compound?
A: > 100 µM

Q: And the TGI (M19-MEL melanoma)?
A: > 100 µM

Q: What about the TGI (MALME-3M melanoma) of the same compound?
A: > 100 µM

Q: What about the TGI (MOLT-4 leukemia) of the same compound?
A: > 100 µM

Q: What about the TGI (NCI-H226 lung) of the same compound?
A: > 10 µM

Q: And the TGI (NCI-H23 lung)?
A: > 100 µM

Q: And the TGI (NCI-H460 lung)?
A: > 100 µM

Q: And the TGI (NCI-H522 lung)?
A: > 100 µM

Q: What about the TGI (OVCAR-3 ovarian) of the same compound?
A: > 100 µM

Q: What about the TGI (OVCAR-4 ovarian) of the same compound?
A: > 10 µM

Q: And the TGI (OVCAR-5 ovarian)?
A: > 100 µM

Q: And the TGI (OVCAR-8 ovarian)?
A: > 10 µM

Q: What about the TGI (RPMI-8226 leukemia) of the same compound?
A: > 100 µM

Q: What about the TGI (RXF 393 renal) of the same compound?
A: > 100 µM

Q: What about the TGI (RXF-631 renal) of the same compound?
A: > 100 µM

Q: What about the TGI (SF-268 CNS) of the same compound?
A: > 100 µM

Q: And the TGI (SF-295 CNS)?
A: > 100 µM

Q: And the TGI (SF-539 CNS)?
A: > 100 µM

Q: And the TGI (SK-MEL-2 melanoma)?
A: > 100 µM

Q: What about the TGI (SK-MEL-28 melanoma) of the same compound?
A: > 100 µM

Q: And the TGI (SK-MEL-5 melanoma)?
A: > 100 µM

Q: And the TGI (SN12C renal)?
A: > 10 µM

Q: And the TGI (SNB-19 CNS)?
A: > 10 µM

Q: And the TGI (SNB-75 CNS)?
A: > 10 µM

Q: What about the TGI (SNB-78 CNS) of the same compound?
A: > 100 µM

Q: What about the TGI (SR leukemia) of the same compound?
A: > 100 µM

Q: And the TGI (SW-620 colon)?
A: > 10 µM

Q: And the TGI (TK-10 renal)?
A: > 100 µM

Q: And the TGI (U251 CNS)?
A: > 100 µM

Q: What about the TGI (UACC-257 melanoma) of the same compound?
A: > 100 µM

Q: What about the TGI (UACC-62 melanoma) of the same compound?
A: > 100 µM

Q: What about the TGI (UO-31 renal) of the same compound?
A: > 100 µM

Q: What about the TGI (XF 498 CNS) of the same compound?
A: > 100 µM

Q: For `CCc1nc2ccccc2c(=O)n1/N=C(\N=Nc1ccc(Cl)cc1)c1ccc(N(C)C)cc1`, which TGI (A498 renal) is on record?
A: > 100 µM

Q: And the TGI (A549 NSCLC)?
A: > 100 µM

Q: What about the TGI (ACHN renal) of the same compound?
A: > 100 µM

Q: What about the TGI (CCRF-CEM leukemia) of the same compound?
A: > 100 µM

Q: And the TGI (COLO 205 colon)?
A: 73.5 µM

Q: And the TGI (DLD-1 colon)?
A: > 100 µM

Q: What about the TGI (DMS 114 small cell lung) of the same compound?
A: 47 µM

Q: And the TGI (DMS 273 small cell lung)?
A: > 100 µM

Q: What about the TGI (EKVX NSCLC) of the same compound?
A: > 100 µM

Q: What about the TGI (HCT-116 colon) of the same compound?
A: 73.6 µM

Q: And the TGI (HCT-15 colon)?
A: > 100 µM

Q: What about the TGI (HL-60(TB) leukemia) of the same compound?
A: 51.6 µM

Q: What about the TGI (HOP-18 NSCLC) of the same compound?
A: > 100 µM

Q: What about the TGI (HOP-62 NSCLC) of the same compound?
A: 50 µM

Q: What about the TGI (HOP-92 NSCLC) of the same compound?
A: 59 µM

Q: And the TGI (K-562 leukemia)?
A: 79.3 µM

Q: What about the TGI (KM20L2 colon) of the same compound?
A: 69.9 µM

Q: What about the TGI (LOX IMVI melanoma) of the same compound?
A: > 100 µM

Q: And the TGI (LXFL 529 NSCLC)?
A: > 100 µM

Q: And the TGI (M14 melanoma)?
A: > 100 µM

Q: And the TGI (MOLT-4 leukemia)?
A: 92.2 µM

Q: What about the TGI (NCI-H23 lung) of the same compound?
A: 92.4 µM

Q: And the TGI (NCI-H460 lung)?
A: > 100 µM

Q: What about the TGI (NCI-H522 lung) of the same compound?
A: 66.9 µM

Q: And the TGI (OVCAR-8 ovarian)?
A: > 100 µM

Q: And the TGI (RPMI-8226 leukemia)?
A: 80.7 µM

Q: And the TGI (RXF 393 renal)?
A: > 100 µM

Q: What about the TGI (RXF-631 renal) of the same compound?
A: > 100 µM

Q: What about the TGI (SF-268 CNS) of the same compound?
A: > 100 µM

Q: And the TGI (SF-539 CNS)?
A: > 100 µM

Q: And the TGI (SK-MEL-28 melanoma)?
A: > 100 µM

Q: What about the TGI (SK-MEL-5 melanoma) of the same compound?
A: 64.6 µM

Q: And the TGI (SK-OV-3 ovarian)?
A: 99.4 µM

Q: What about the TGI (SN12C renal) of the same compound?
A: > 100 µM

Q: And the TGI (SW-620 colon)?
A: > 100 µM

Q: What about the TGI (TK-10 renal) of the same compound?
A: > 100 µM

Q: And the TGI (U251 CNS)?
A: > 100 µM

Q: What about the TGI (UO-31 renal) of the same compound?
A: 60.1 µM

Q: What about the TGI (XF 498 CNS) of the same compound?
A: 80.7 µM
